In paper PMC7979765, “trans-Translation inhibitors bind to a novel site on the ribosome and clear Neisseria gonorrhoeae in vivo” (Nature Communications, 2021):
“And” between values parts separate entries of the source, which are not always exact repeats. Equal entries are not always repeated. Where two headings read alike, the source gives them in different places.

Assay: Pharmacokinetic analyses in mice (PO suspension, IV, SC)
Type: in vivo, mouse
Protocol: Female CD-1 mice as above were fasted for 2 h prior, and 4 h after dosing. […] […], 3 mice from each group were euthanized by CO2 inhalation, blood was collected by cardiac puncture into K2EDTA collection tubes, and protein was precipitated and analysed by LC/MS-MS for plasma concentrations of MBX-4132. Data were analysed using WinNonLin.
[…] At 0.083, 0.5, 1, 4, 8 and 24 h post dose, blood was collected from 3 mice/group by tail vein or facial bleed into K2EDTA collection tubes, and protein was precipitated and analysed by LC/MS-MS for plasma concentrations of MBX-4132. Sampling was performed serially, with each mouse contributing sample at all time points. Data were analysed using WinNonLin.

For `O=C(Nc1nnc(-c2ccc(F)cc2)o1)N1CCc2ccccc2C1` [MBX 4132], which “MBX 4132 Concentrations in Mouse Plasma” value (IV (10 mg/kg), 0.083 hrs, individual animals, 10 mg/kg) is on record?
Its value is 58700 ng/mL and 65700 ng/mL.

What about the “MBX 4132 Concentrations in Mouse Plasma” value (IV (10 mg/kg), 0.5 hrs, individual animals, 10 mg/kg) of the same molecule?
Its value is 36200 ng/mL and 32000 ng/mL.

And the “MBX 4132 Concentrations in Mouse Plasma” value (IV (10 mg/kg), 1 hrs, individual animals, 10 mg/kg)?
Its value is 22900 ng/mL and 20200 ng/mL.

What about the “MBX 4132 Concentrations in Mouse Plasma” value (IV (10 mg/kg), 4 hrs, individual animals, 10 mg/kg) of the same molecule?
Its value is 8580 ng/mL and 6390 ng/mL.

What about the “MBX 4132 Concentrations in Mouse Plasma” value (IV (10 mg/kg), 8 hrs, individual animals, 10 mg/kg) of the same molecule?
The value was 3980 ng/mL and 3290 ng/mL.

What about the “MBX 4132 Concentrations in Mouse Plasma” value (IV (10 mg/kg), 24 hrs, individual animals, 10 mg/kg) of the same molecule?
The value was 293 ng/mL and 149 ng/mL and 67.4 ng/mL.

What about the “MBX 4132 Concentrations in Mouse Plasma” value (PO (10 mg/kg susp.), 0.25 hrs, individual animals, 10 mg/kg) of the same molecule?
The value was 15389 ng/mL and 9102 ng/mL.

What about the “MBX 4132 Concentrations in Mouse Plasma” value (PO (10 mg/kg susp.), 0.5 hrs, individual animals, 10 mg/kg) of the same molecule?
The value was 16019 ng/mL and 12183 ng/mL.

What about the “MBX 4132 Concentrations in Mouse Plasma” value (PO (10 mg/kg susp.), 1 hrs, individual animals, 10 mg/kg) of the same molecule?
The value was 16437 ng/mL and 15902 ng/mL.

What about the “MBX 4132 Concentrations in Mouse Plasma” value (PO (10 mg/kg susp.), 2 hrs, individual animals, 10 mg/kg) of the same molecule?
Its value is 10997 ng/mL and 18067 ng/mL.

And the “MBX 4132 Concentrations in Mouse Plasma” value (PO (10 mg/kg susp.), 4 hrs, individual animals, 10 mg/kg)?
The value was 13379 ng/mL and 14121 ng/mL.

And the “MBX 4132 Concentrations in Mouse Plasma” value (PO (10 mg/kg susp.), 8 hrs, individual animals, 10 mg/kg)?
Its value is 11230 ng/mL and 9243 ng/mL.

And the “MBX 4132 Concentrations in Mouse Plasma” value (PO (10 mg/kg susp.), 24 hrs, individual animals)?
Its value is <62.5 ng/mL.

And the “MBX 4132 Concentrations in Mouse Plasma” value (PO (10 mg/kg), 0.083 hrs, individual animals, 10 mg/kg)?
Its value is 809 ng/mL and 1080 ng/mL and 1900 ng/mL.

What about the “MBX 4132 Concentrations in Mouse Plasma” value (PO (10 mg/kg), 0.5 hrs, individual animals, 10 mg/kg) of the same molecule?
The value was 881 ng/mL and 1440 ng/mL and 1770 ng/mL.

What about the “MBX 4132 Concentrations in Mouse Plasma” value (PO (10 mg/kg), 1 hrs, individual animals, 10 mg/kg) of the same molecule?
Its value is 1490 ng/mL and 1730 ng/mL.

What about the “MBX 4132 Concentrations in Mouse Plasma” value (PO (10 mg/kg), 4 hrs, individual animals, 10 mg/kg) of the same molecule?
The value was 1960 ng/mL and 2880 ng/mL.

And the “MBX 4132 Concentrations in Mouse Plasma” value (PO (10 mg/kg), 8 hrs, individual animals, 10 mg/kg)?
The value was 4940 ng/mL and 6040 ng/mL.

And the “MBX 4132 Concentrations in Mouse Plasma” value (PO (10 mg/kg), 24 hrs, individual animals, 10 mg/kg)?
Its value is 66.5 ng/mL and 26.0 ng/mL and 81.5 ng/mL.

What about the “MBX 4132 Concentrations in Mouse Plasma” value (SC (10 mg/kg), 0.083 hrs, individual animals, 10 mg/kg) of the same molecule?
Its value is 738 ng/mL and 530 ng/mL and 1090 ng/mL.

And the “MBX 4132 Concentrations in Mouse Plasma” value (SC (10 mg/kg), 0.5 hrs, individual animals, 10 mg/kg)?
The value was 3760 ng/mL and 4140 ng/mL.

What about the “MBX 4132 Concentrations in Mouse Plasma” value (SC (10 mg/kg), 1 hrs, individual animals, 10 mg/kg) of the same molecule?
The value was 3190 ng/mL and 3390 ng/mL.

What about the “MBX 4132 Concentrations in Mouse Plasma” value (SC (10 mg/kg), 4 hrs, individual animals, 10 mg/kg) of the same molecule?
The value was 2890 ng/mL and 2390 ng/mL.

And the “MBX 4132 Concentrations in Mouse Plasma” value (SC (10 mg/kg), 8 hrs, individual animals, 10 mg/kg)?
Its value is 2800 ng/mL and 2480 ng/mL.

And the “MBX 4132 Concentrations in Mouse Plasma” value (SC (10 mg/kg), 24 hrs, individual animals, 10 mg/kg)?
The value was 599 ng/mL and 627 ng/mL.

What about the “MBX 4132 Concentrations in Mouse Plasma” value (SC (25 mg/kg), 0.083 hrs, individual animals, 25 mg/kg) of the same molecule?
Its value is 1190 ng/mL and 2170 ng/mL.

What about the “MBX 4132 Concentrations in Mouse Plasma” value (SC (25 mg/kg), 0.5 hrs, individual animals, 25 mg/kg) of the same molecule?
Its value is 3170 ng/mL and 5250 ng/mL and 6610 ng/mL.

What about the “MBX 4132 Concentrations in Mouse Plasma” value (SC (25 mg/kg), 1 hrs, individual animals, 25 mg/kg) of the same molecule?
Its value is 5270 ng/mL and 5450 ng/mL.

And the “MBX 4132 Concentrations in Mouse Plasma” value (SC (25 mg/kg), 4 hrs, individual animals, 25 mg/kg)?
The value was 3050 ng/mL and 3600 ng/mL.

And the “MBX 4132 Concentrations in Mouse Plasma” value (SC (25 mg/kg), 8 hrs, individual animals, 25 mg/kg)?
The value was 3850 ng/mL and 4860 ng/mL.

What about the “MBX 4132 Concentrations in Mouse Plasma” value (SC (25 mg/kg), 24 hrs, individual animals, 25 mg/kg) of the same molecule?
Its value is 2190 ng/mL and 1680 ng/mL.

What about the concentration at 24 h (female, CD-1, mouse, in vivo, iv, 10 mg/kg, IV (10 mg/kg), 24 hrs, mean of 3 animals, read-out: MBX 4132 Concentrations in Mouse Plasma, Mean) of the same molecule?
Its concentration at 24 h is 170 ng/mL.

What about the concentration at 0.25 h (female, CD-1, mouse, in vivo, po, 10 mg/kg, PO (10 mg/kg susp.), 0.25 hrs, individual animals, read-out: MBX 4132 Concentrations in Mouse Plasma) of the same molecule?
The concentration at 0.25 h was 14300 ng/mL.

What about the concentration at 0.25 h (female, CD-1, mouse, in vivo, po, 10 mg/kg, PO (10 mg/kg susp.), 0.25 hrs, mean of 3 animals, read-out: MBX 4132 Concentrations in Mouse Plasma, Mean) of the same molecule?
The concentration at 0.25 h was 12900 ng/mL.

And the concentration at 0.5 h (female, CD-1, mouse, in vivo, po, 10 mg/kg, PO (10 mg/kg susp.), 0.5 hrs, individual animals, read-out: MBX 4132 Concentrations in Mouse Plasma)?
The concentration at 0.5 h was 13900 ng/mL.

And the concentration at 0.5 h (female, CD-1, mouse, in vivo, po, 10 mg/kg, PO (10 mg/kg susp.), 0.5 hrs, mean of 3 animals, read-out: MBX 4132 Concentrations in Mouse Plasma, Mean)?
Its concentration at 0.5 h is 14000 ng/mL.

And the concentration at 1 h (female, CD-1, mouse, in vivo, po, 10 mg/kg, PO (10 mg/kg susp.), 1 hrs, individual animals, read-out: MBX 4132 Concentrations in Mouse Plasma)?
Its concentration at 1 h is 12100 ng/mL.

And the concentration at 1 h (female, CD-1, mouse, in vivo, po, 10 mg/kg, PO (10 mg/kg susp.), 1 hrs, mean of 3 animals, read-out: MBX 4132 Concentrations in Mouse Plasma, Mean)?
Its concentration at 1 h is 14800 ng/mL.

And the concentration at 2 h (female, CD-1, mouse, in vivo, po, 10 mg/kg, PO (10 mg/kg susp.), 2 hrs, individual animals, read-out: MBX 4132 Concentrations in Mouse Plasma)?
Its concentration at 2 h is 15000 ng/mL.

What about the concentration at 2 h (female, CD-1, mouse, in vivo, po, 10 mg/kg, PO (10 mg/kg susp.), 2 hrs, mean of 3 animals, read-out: MBX 4132 Concentrations in Mouse Plasma, Mean) of the same molecule?
Its concentration at 2 h is 14700 ng/mL.

And the concentration at 4 h (female, CD-1, mouse, in vivo, po, 10 mg/kg, PO (10 mg/kg susp.), 4 hrs, individual animals, read-out: MBX 4132 Concentrations in Mouse Plasma)?
Its concentration at 4 h is 13300 ng/mL.

And the concentration at 4 h (female, CD-1, mouse, in vivo, po, 10 mg/kg, PO (10 mg/kg susp.), 4 hrs, mean of 3 animals, read-out: MBX 4132 Concentrations in Mouse Plasma, Mean)?
The concentration at 4 h was 13600 ng/mL.

What about the concentration at 8 h (female, CD-1, mouse, in vivo, po, 10 mg/kg, PO (10 mg/kg susp.), 8 hrs, individual animals, read-out: MBX 4132 Concentrations in Mouse Plasma) of the same molecule?
Its concentration at 8 h is 9290 ng/mL.
